According to the supplement of paper PMC10627819:

Assays:
[1] = tested on: B. subtilis 168; test: fitness (endpoint OD595 vs no drug) (fraction); higher = more growth
Summary of the method: (§1)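 Each well of a 384-well plate received 30 µl of culture at OD595 0.01, or 55 µl for S. pneumoniae. TSB, LB Lennox or CY served as media at 37 °C. OD595 was taken every 30 min for 14 h and corrected by subtracting the first reading. Fitness is the optical density at stationary-phase entry divided by the robust mean of no-drug controls, capped at 1.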

[2] = tested on: S. pneumoniae D39V; test: as above
Summary of the method: as §1

[3] = tested on: B. subtilis 168; test: Bliss interaction score (quartile over a dose matrix) (fitness difference); higher = more antagonism (negative = synergy)
Summary of the method: (§2)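 Fitness was derived from optical density at entry into stationary phase, divided by the robust mean of the no-drug wells on the same plate. That reading was taken as OD595, and the ratio was capped at 1. Single-drug fitness was inferred from the combination data. The Bliss score, observed fitness minus the expected product of single-drug fitness, was summarised as quartiles over technical, biological and donor/recipient replicates.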

[4] = tested on: S. aureus Newman; test: as above
Summary of the method: as §2

[5] = tested on: S. aureus DSM 20231; test: as above
Summary of the method: as §2

[6] = tested on: S. pneumoniae D39V; test: as above
Summary of the method: as §2
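Wherever Bliss interaction score (quartile over a dose matrix) is given: first quartile when negative (synergy) and third quartile when positive (antagonism).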

CO/N=C(\C(=O)N[C@@H]1C(=O)N2C(C(=O)O)=C(COC(C)=O)CS[C@H]12)c1csc(N)n1 [Cefotaxime] + C[C@H]1COc2c(N3CCN(C)CC3)c(F)cc3c(=O)c(C(=O)O)cn1c23 [Levofloxacin]
fitness, [1], one replicate
Details | first compound 0.00775 µg/mL | first compound 0.0155 µg/mL | first compound 0.031 µg/mL | first compound 0.0625 µg/mL | first compound 0.125 µg/mL | first compound 0.25 µg/mL
partner 0.001 µg/mL | – | – | – | 0.491 | 0.378 | 0.158
partner 0.002 µg/mL | 0.874 | 0.691 | 0.57 | 0.382 | 0.311 | 0.158
partner 0.0039 µg/mL | 0.834 | 0.683 | 0.565 | 0.418 | 0.306 | 0.128
partner 0.0078 µg/mL | 0.812 | 0.659 | 0.496 | – | – | –

Details | fitness
[1], first compound 0.5 µg/mL, partner 0.0312 µg/mL | 0.0483
[1], first compound 0.5 µg/mL, partner 0.0625 µg/mL | 0.0584
[1], first compound 0.5 µg/mL, partner 0.125 µg/mL | 0.0586
[1], first compound 1 µg/mL, partner 0.0312 µg/mL | 0.0414
[1], first compound 1 µg/mL, partner 0.0625 µg/mL | 0.0443
[1], first compound 1 µg/mL, partner 0.125 µg/mL | 0.0448
[1], first compound 2 µg/mL, partner 0.0312 µg/mL | 0.0456
[1], first compound 2 µg/mL, partner 0.0625 µg/mL | 0.0537
[1], first compound 2 µg/mL, partner 0.125 µg/mL | 0.0738
[2], first compound 0.0018 µg/mL, partner 0.1725 µg/mL | 0.986
[2], first compound 0.0018 µg/mL, partner 0.2 µg/mL | 0.966
[2], first compound 0.0018 µg/mL, partner 0.345 µg/mL | 0.956
[2], first compound 0.0018 µg/mL, partner 0.4 µg/mL | 0.925
[2], first compound 0.0018 µg/mL, partner 0.69 µg/mL | 0.701
[2], first compound 0.0018 µg/mL, partner 0.8 µg/mL | 0.632
[2], first compound 0.0035 µg/mL, partner 0.1725 µg/mL | 0.985
[2], first compound 0.0035 µg/mL, partner 0.2 µg/mL | 0.943
[2], first compound 0.0035 µg/mL, partner 0.345 µg/mL | 0.939
[2], first compound 0.0035 µg/mL, partner 0.4 µg/mL | 0.894
[2], first compound 0.0035 µg/mL, partner 0.69 µg/mL | 0.656
[2], first compound 0.0035 µg/mL, partner 0.8 µg/mL | 0.611
[2], first compound 0.007 µg/mL, partner 0.1725 µg/mL | 0.824
[2], first compound 0.007 µg/mL, partner 0.2 µg/mL | 0.922
[2], first compound 0.007 µg/mL, partner 0.345 µg/mL | 0.731
[2], first compound 0.007 µg/mL, partner 0.4 µg/mL | 0.846
[2], first compound 0.007 µg/mL, partner 0.8 µg/mL | 0.548

Details | Bliss interaction score
[3] | 0.0631
[4] | 0.0336
[5] | -0.0398
[6] | 0.112

C[C@H]1c2cccc(O)c2C(=O)C2=C(O)[C@]3(O)C(=O)C(C(N)=O)=C(O)[C@@H](N(C)C)[C@@H]3[C@@H](O)[C@@H]21 [Doxycycline] + CC(C1CCC(C(O1)OC2C(CC(C(C2O)OC3C(C(C(CO3)(C)O)NC)O)N)N)N)NC [Gentamicin]
main component drawn
Details | fitness
[1], first compound 0.02 µg/mL, partner 0.0625 µg/mL | 0.896
[1], first compound 0.04 µg/mL, partner 0.0625 µg/mL | 0.747
[1], first compound 0.08 µg/mL, partner 0.25 µg/mL | 0.0845
[2], first compound 0.0155 µg/mL, partner 2 µg/mL | 0.885
[2], first compound 0.0155 µg/mL, partner 4 µg/mL | 0.857
[2], first compound 0.0155 µg/mL, partner 8 µg/mL | 0.824

fitness, [2], one replicate, main component drawn
Details | partner 2 µg/mL | partner 4 µg/mL | partner 8 µg/mL
first compound 0.003875 µg/mL | ≥ 1 | ≥ 1 | ≥ 1
first compound 0.00775 µg/mL | ≥ 1 | 0.995 | 0.967

main component drawn
Details | Bliss interaction score
[3] | 0.213
[4] | 0.0873
[5] | 0.067
[6] | -0.208

CO/N=C(\C(=O)N[C@@H]1C(=O)N2C(C(=O)O)=C(COC(C)=O)CS[C@H]12)c1csc(N)n1 [Cefotaxime] + C[C@H]1c2cccc(O)c2C(=O)C2=C(O)[C@]3(O)C(=O)C(C(N)=O)=C(O)[C@@H](N(C)C)[C@@H]3[C@@H](O)[C@@H]21 [Doxycycline]
fitness, one replicate
Details | first compound 0.0018 µg/mL | first compound 0.0035 µg/mL | first compound 0.007 µg/mL | first compound 0.00775 µg/mL | first compound 0.0155 µg/mL | first compound 0.031 µg/mL | first compound 0.0625 µg/mL | first compound 0.125 µg/mL | first compound 0.25 µg/mL
[1], partner 0.02 µg/mL | – | – | – | 0.855 | 0.698 | 0.508 | 0.608 | 0.538 | 0.467
[1], partner 0.04 µg/mL | – | – | – | 0.665 | 0.523 | 0.377 | 0.511 | 0.366 | 0.304
[1], partner 0.08 µg/mL | – | – | – | 0.278 | 0.0446 | 0.0311 | 0.343 | 0.209 | 0.252
[2], partner 0.003875 µg/mL | ≥ 1 | ≥ 1 | 0.866 | – | – | – | – | – | –
[2], partner 0.00775 µg/mL | ≥ 1 | 0.974 | 0.888 | – | – | – | – | – | –

fitness
Details | first compound 0.0018 µg/mL | first compound 0.0035 µg/mL | first compound 0.007 µg/mL | first compound 0.5 µg/mL | first compound 1 µg/mL | first compound 2 µg/mL
[1], partner 0.02 µg/mL | – | – | – | 0.288 | 0.198 | 0.157
[1], partner 0.04 µg/mL | – | – | – | 0.204 | 0.086 | 0.0899
[1], partner 0.08 µg/mL | – | – | – | 0.0692 | 0.0318 | 0.0723
[2], partner 0.0155 µg/mL | 0.955 | 0.943 | 0.864 | – | – | –
[2], partner 0.031 µg/mL | 0.814 | 0.801 | 0.794 | – | – | –

Details | Bliss interaction score
[3] | 0.0737
[4] | 0.0304
[5] | 0.141
[6] | 0.0963

COc1cccc2c1C(=O)c1c(O)c3c(c(O)c1C2=O)C[C@@](O)(C(=O)CO)C[C@@H]3O[C@H]1C[C@H](N)[C@H](O)[C@H](C)O1 [Doxorubicin] + CN(C)C(=O)C(CCN1CCC(O)(c2ccc(Cl)cc2)CC1)(c1ccccc1)c1ccccc1 [Loperamide]
Details | fitness
[1], first compound 0.625 µg/mL, partner 50 µg/mL | 0.0285
[1], first compound 0.625 µg/mL, partner 100 µg/mL | 0.0284
[1], first compound 1.25 µg/mL, partner 50 µg/mL | 0.0281
[1], first compound 1.25 µg/mL, partner 100 µg/mL | 0.0427
[1], first compound 2.5 µg/mL, partner 25 µg/mL | 0.0131
[1], first compound 2.5 µg/mL, partner 50 µg/mL | 0.0232
[1], first compound 2.5 µg/mL, partner 100 µg/mL | 0.019
[2], first compound 0.25 µg/mL, partner 17.14 µg/mL | 0.905
[2], first compound 0.25 µg/mL, partner 20 µg/mL | ≥ 1
[2], first compound 0.25 µg/mL, partner 34.28 µg/mL | 0.884
[2], first compound 0.25 µg/mL, partner 40 µg/mL | ≥ 1
[2], first compound 0.5 µg/mL, partner 17.14 µg/mL | 0.915
[2], first compound 0.5 µg/mL, partner 20 µg/mL | ≥ 1
[2], first compound 0.5 µg/mL, partner 34.28 µg/mL | 0.899
[2], first compound 0.5 µg/mL, partner 40 µg/mL | ≥ 1
[2], first compound 1 µg/mL, partner 17.14 µg/mL | 0.912
[2], first compound 1 µg/mL, partner 20 µg/mL | 0.991
[2], first compound 1 µg/mL, partner 34.28 µg/mL | 0.902
[2], first compound 1 µg/mL, partner 40 µg/mL | 0.967

[2], partner 68.57 µg/mL, one replicate
Details | fitness
first compound 0.25 µg/mL | 0.87
first compound 0.5 µg/mL | 0.872
first compound 1 µg/mL | 0.929

Details | Bliss interaction score
[3] | -0.228
[4] | -0.0664
[5] | -0.0983
[6] | 0.0787
